Measurements taken from patent US20050288323A1, “Octahydro-indolizine and quinolizine and hexahydro-pyrrolizine” (priority 2000, published 2005).

Biological target: T1, human histamine H3 receptor (Homo sapiens, UniProt Q9Y5N1)
T1 construct: One microgram of supercoiled H3 receptor cDNA was added to the cells and mixed; expressed in transfected cells; membranes
Assay: [3H]-N-methylhistamine binding
Protocol: Thus in the present invention receptor binding was determined using the human histamine H3 receptor (See Lovenberg et al Mol. Pharmacol. 1999, 1107). Screening using the human receptor is particularly important for the identification of new therapies for the treatment of human disease. Conventional binding assays for example are determined using rat synaptosomes (Garbarg et al J. Pharmacol. Exp. Ther. 1992, 263, 304), rat cortical membranes (West et al Mol. Pharmacol. 1990, 610), and guinea pig brain (Korte et al Biochem. Biophys. Res. Commun. 1990, 978). Only limited studies have been performed previously using human tissue but these allude to significant differences in the pharmacology of rodent and primate receptors (West et al Eur. J. Pharmacol. 1999, 233).
Transfection of Cells with Human Histamine Receptor
A 10 cm tissue culture dish with a confluent monolayer of SK-N-MC cells was split two days prior to transfection. Using sterile technique the media was removed and the cells were detached from the dish by the addition of trypsin. One fifth of the cells were then placed onto a new 10 cm dish. Cells were grown in a 37° C. incubator with 5% CO2 in Minimal Essential Media Eagle with 10% Fetal Bovine Serum. After two days cells were approximately 80% confluent. These were removed from the dish with trypsin and pelleted in a clinical centrifuge. The pellet was then re-suspended in 400 μL complete media and transferred to an electroporation cuvette with a 0.4 cm gap between the electrodes (Bio-Rad #165-2088). One microgram of supercoiled H3 receptor cDNA was added to the cells and mixed. The voltage for the electroporation was set at 0.25 kV, the capacitance was set at 960 μF. After electroporation the cells were diluted into 10 mL complete media and plated onto four 10 cm dishes. Because of the variability in the efficiency of electroporation, four different concentrations of cells were plated. The ratios used were; 1:20, 1:10, 1:5, with the remainder of the cells being added to the fourth dish. The cells were allowed to recover for 24 hours before adding the selection media (complete media with 600 μg/mL G418). After 10 days dishes were analyzed for surviving colonies of cells. Dishes with well isolated colonies were used. Cells from individual colonies were isolated and tested. SK-N-MC cells were used because they give efficient coupling for inhibition of adenylate cyclase. The clones that gave the most robust inhibition of adenylate cyclase in response to histamine were used for further study.
[^3H]-N-methylhistamine Binding
Cell pellets from histamine H3 receptor-expressing SK-N-MC cells were homogenized in 20 mM TrisHCl/0.5 mM EDTA. Supernatants from a 800 g spin were collected, recentrifuged at 30,000 g for 30 minutes. Pellets were re-homogenized in 50 mM Tris/5 mM EDTA (pH 7.4). Membranes were incubated with 0.8 nM [^3H]-N-methylhistamine plus/minus test compounds for 45 min at 25° C. and harvested by rapid filtration over GF/C glass fiber filters (pretreated with 0.3% polyethylenimine) followed by four washes with ice cold buffer. Filters were dried, added to 4 mL scintillation cocktail and then counted on a liquid scintillation counter. Non-specific binding was defined with 10 μM histamine. The pKi values were calculated based on a Kd of 800 pM and a ligand concentration ([L]) of 800 pM according to the formula: Ki=(IC50)/(1+([L]/(Kd))

[1] = [3H]-N-methylhistamine 0.8 nM, membranes of H3 receptor-expressing SK-N-MC cells
[2] = Table 2, [3H]-N-methylhistamine binding
[3] = Table 5, [3H]-N-methylhistamine binding
[4] = Table 3, [3H]-N-methylhistamine binding
[5] = Table 1, [3H]-N-methylhistamine binding

T1 sequence (Q9Y5N1 whole entry): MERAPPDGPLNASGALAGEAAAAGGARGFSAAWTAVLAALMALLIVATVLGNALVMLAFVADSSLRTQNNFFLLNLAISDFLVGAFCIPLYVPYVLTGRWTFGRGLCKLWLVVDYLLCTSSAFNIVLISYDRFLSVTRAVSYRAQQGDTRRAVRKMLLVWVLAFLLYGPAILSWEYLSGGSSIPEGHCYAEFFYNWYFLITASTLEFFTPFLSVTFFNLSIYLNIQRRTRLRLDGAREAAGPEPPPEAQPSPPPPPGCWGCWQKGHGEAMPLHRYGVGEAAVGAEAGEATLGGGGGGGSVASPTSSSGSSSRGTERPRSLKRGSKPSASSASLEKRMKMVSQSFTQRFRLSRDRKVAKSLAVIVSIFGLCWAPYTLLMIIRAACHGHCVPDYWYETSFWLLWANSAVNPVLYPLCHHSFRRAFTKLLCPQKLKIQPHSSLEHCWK

Row | Compound | Ki [1] [nM] | other results
1 | c1cc([C@@H]2CC[C@@H]3CCCCN32)ccc1OCCCN1CCCCC1 [Example 94, (S, S)-3-(4-(3-Piperidinylpropoxy)phenyl)octahydroindolizine] | 0.06 | –
2 | CN(c1ccc([C@@H]2CC[C@@H]3CCCCN32)cc1)S(=O)(=O)C1CCCNC1 (relative stereo) [Example 118, trans-3-[4-(3-Piperidylsulfonyl-N-methylamino)phenyl]octahydroindolizine] | 61 | –
3 | c1ccc(Sc2ccc([C@H]3CC[C@H]4CCCCN43)cc2)nc1 (racemic) [Example 28] | – | Ki [2]: 205 nM
4 | trans-3-[4-(Vinylsulfonylamino)phenyl]octahydroindolizine [Example 119] | > 5000 | –
5 | FC(F)(F)Oc1ccc(-c2ccc([C@H]3CC[C@H]4CCCCN43)cc2)cc1 (relative stereo) [Example 47, trans-3-[4-(4-Trifluromethoxyphenyl)phenyl]octahydroindolizine] | 1220 | –
6 | OC(c1ccncc1)c1ccc([C@H]2CC[C@H]3CCCCN32)cc1 (stereo partly drawn) [Example 24, trans-3-[4-(4-Pyridylmethan-1-ol)phenyl]octahydroindolizine] | 82 | –
7 | O=C(CCCCN1CCCCC1)Nc1ccc([C@@H]2CC[C@@H]3CCCCN32)cc1 (relative stereo) [Example 112, trans-3-[4-(N-5-Piperidylpentanamido)phenyl]octahydroindolizine] | 2.1 | –
8 | C[Si](C)(C)C#Cc1ccc([C@H]2CC[C@H]3CCCCN32)cc1 (racemic) [Example 74, trans-3-(4-trimethylsilylacetylenephenyl)octahydroindolizine] | 1500 | –
9 | c1cc(C2CCC3CCCN32)ccc1OCCCN1CCCCC1 (stereo not drawn) [Example 140, 3-[4-(Piperidinylpropoxy)phenyl]hexahydro-1H-pyrrolizine] | 0.6 | –
10 | c1cc([C@@H]2CCC[C@@H]3CCCN32)ccc1OCCCN1CCCCC1 (racemic) [Example 64, 5-[4-(3-Piperidinylpropoxy)phenyl]octahydroindolizine] | 0.7 | –
11 | c1ccc(CN(Cc2ccccc2)c2ccc([C@H]3CC[C@H]4CCCCN43)cc2)cc1 (racemic) [Example 135] | – | Ki [3]: 3950 nM
12 | Nc1ccc(Sc2ccc([C@H]3CC[C@H]4CCCCN43)cc2)cc1 (racemic) [Example 40, tran-3-[4-(4-Aminophenylthio)phenyl]octahydroindolizine] | 62 | –
13 | O=C(N1CCCCC1CCOc1ccc([C@H]2CC[C@H]3CCCCN32)cc1)C(F)(F)F (mixture of isomers) [Example 88, trans-3-{4-[2,2′-(N-Trifluoroacetylpiperidinyl)ethoxy]phenyl}octahydroindolizine] | 71 | –
14 | Oc1ccc([C@@H]2CCC[C@@H]3CCCN32)cc1 (racemic) [Example 60, 5-(4-Hydroxyphenyl)octahydroindolizine] | 1400 | –
15 | O=C(CCN1CCCCC1)Nc1ccc([C@@H]2CC[C@@H]3CCCCN32)cc1 (relative stereo) [Example 105, trans-3-[4-(N-3-Piperidinylpropanamido)phenyl]octahydroindolizine] | 10 | –
16 | C(=C\c1ccc([C@H]2CC[C@H]3CCCCN32)cc1)/c1ccncc1 (racemic) [Example 73, trans-3-[4-(4-Pyridinylethenyl)phenyl]octahydroindolizine] | 65 | –
17 | c1cc([C@@H]2CCC[C@@H]3CCCN32)ccc1OCCCCN1CCCCC1 (racemic) [Example 62] | 0.7 | –
18 | c1csc(-c2ccc([C@H]3CC[C@H]4CCCCN43)cc2)c1 (racemic) [Example 50, 3-(4-Thiophen-2-yl-phenyl)-octahydro-indolizine] | 173 | –
19 | CS(=O)(=O)Nc1cccc(-c2ccc([C@H]3CC[C@H]4CCCCN43)cc2)c1 [Example 55, tran-3-[4-(3-Methylsulfonylaminophenyl)phenyl]octahydroindolizine] | 320 | –
20 | c1cc(Sc2ccc([C@@H]3CC[C@@H]4CCCCN43)cc2)ccn1 [Example 138, (S, S)-Octahydro-3-[4-(4-pyridinylthio)phenyl]indolizine] | 100 | –

Row | Compound | Ki [1] [nM] | other results
21 | Fc1ccc(-c2ccc([C@H]3CC[C@H]4CCCCN43)cc2)cc1 (racemic) [Example 53] | – | Ki [4]: 415 nM
22 | CN(C)CCCOc1ccc([C@H]2CC[C@H]3CCCCN32)cc1 (racemic) [Example 17, Dimethyl-{3-[4-(octahydro-indolizin-3-yl)-phenoxy]-propyl}-amine] | 9.5 | Ki [5]: 10 nM
23 | c1cc(C2CC3CCCCN3C2)ccc1OCCCN1CCCCC1 (stereo not drawn) [Example 69, syn-2-[4-(3-Piperidinylpropanoxy)phenyl]octahydroindolizine] | 0.2 | –
24 | Nc1ccc([C@@H]2CC[C@@H]3CCCCN32)cc1 (relative stereo) [Example 95, trans-3-(4-Aminophenyl)octahydroindolizine] | 32 | –
25 | c1cc([C@H]2CC[C@H]3CCCCN32)ccc1OCCN1CCCCC1 (racemic) [Example 16, 3-[4-(2-Piperidin-1-yl-ethoxy)-phenyl]-octahydro-indolizine] | 9.1 | Ki [5]: 9 nM
26 | c1cc(Sc2ccc(C3CCCC4CCCCN43)cc2)ccn1 (stereo not drawn) [Example 25, 4-[4-(4-Pyridylthio)phenyl]octahydoquinolizine] | 305 | –
27 | N#Cc1ccc(Sc2ccc([C@H]3CC[C@H]4CCCCN43)cc2)cc1 (racemic) [Example 38] | – | Ki [2]: 558 nM
28 | c1cc(OCCCN2CCCCC2)cc([C@H]2C[C@@H]3CCCCN3C2)c1 (racemic) [Example 72, anti-2-[3-(3-Piperidinylpropyloxy)phenyl]octahydroindolizine] | 0.3 | –
29 | c1cc(Sc2ccc([C@@H]3CCC[C@@H]4CCCN43)cc2)ccn1 (racemic) [Example 26, 5-[4-(4-Pyridinylthio)phenyl]octahydroindolizine] | 35 | –
30 | c1cc([C@H]2CC[C@H]3CCCCN32)ccc1OCCC1CCCCN1 (stereo partly drawn) [Example 86, trans-3-[4-(2,2′-piperidinylethoxy)phenyl]octahydroindolizine] | 90 | –
31 | c1cc([C@H]2CC[C@H]3CCCCN32)ccc1OCCCN1CCCCC1 (racemic) [Example 92, trans-3-(4-(3-Piperidinylpropoxy)phenyl)octahydroindolizine] | 0.3 | –
32 | trans-3-{4-[(2-Pyrrolidylethyl)sulfonylamino]phenyl}octahydroindolizine [Example 122] | 534 | –
33 | c1cc(Sc2ccc([C@H]3CC[C@H]4CCCCN43)cc2)ccn1 [Example 137, (R, R)-Octahydro-3-[4-(4-pyridinylthio)phenyl]indolizine] | 3.8 | –
34 | c1cc([C@@H]2CCC[C@@H]3CCCN32)ccc1OCCN1CCCCC1 (racemic) [Example 63, 5-[4-(2-Piperidinylethanoxy)phenyl]octahydroindolizine] | 5 | –
35 | CN(c1ccc([C@H]2CC[C@H]3CCCCN32)cc1)C1CCN(S(C)(=O)=O)CC1 (racemic) [Example 103] | 98 | –
36 | C#Cc1ccc([C@H]2CC[C@H]3CCCCN32)cc1 (racemic) [Example 75, trans-3-(4-acetylenephenyl)octahydroindolizine] | 1100 | –
37 | O=Cc1ccsc1-c1ccc([C@H]2CC[C@H]3CCCCN32)cc1 (racemic) [Example 51] | – | Ki [4]: 132 nM
38 | c1cncc(Oc2ccc([C@H]3CC[C@H]4CCCCN43)cc2)c1 (racemic) [Example 29] | – | Ki [2]: 150 nM
39 | c1ccc(CNc2ccc([C@H]3CC[C@H]4CCCCN43)cc2)nc1 (racemic) [Example 128] | – | Ki [3]: 1340 nM
40 | O=Cc1ccc([C@H]2CC[C@H]3CCCCN32)cc1 (racemic) [trans-3-(4-Formylphenyl)octahydroindolizine] | 587 | –
